In article PMC7226534, “[^18F]FET-βAG-TOCA: The Design, Evaluation and Clinical Translation of a Fluorinated Octreotide” (Cancers, 2020):

What was measured:
Wistar rats = conditions: in vivo, iv
Protocol: While adhering to ALARP principles (As Low As Reasonably Practical), a rat dosimetry study was also conducted to enable initial prediction of human Effective Dose. Wistar rats were dosed with a single intravenous injection of [^18F]FET-βAG-TOCA and monitored up to 7 h. Effective Dose for both sexes were estimated at 0.03 mSv/MBq.

rat (HsdHan:WIST strain) = assay: GLP single dose intravenous bolus extended acute toxicology study in the rat; type: in vivo; conditions: dose levels 0, 0.25 and 1 mg/kg
Protocol: Two key studies were conducted to assure regulators of the safety of [^18F]FET-βAG-TOCA prior to first-in-human testing. A Good Laboratory Practice single dose intravenous bolus extended acute toxicology study in the rat (HsdHan^TM:WIST strain) was conducted with both [^19F]FET-βAG-TOCA and the propanyl-βAG-TOCA precursor. Animals were monitored throughout; day 2 (interim) and day 14 (termination) analysis were conducted. Dose levels of 0, 0.25 and 1 mg/kg of either test articles were tolerated in-life with no mortality. There were no effects on food consumption or body weight. Clinical pathology changes were noted but were not consistently seen in both sexes and were not associated with any pathological changes. A No Observed Adverse Effect Level (NOAEL) for both [^19F]FET-βAG-TOCA and propanyl-βAG-TOCA was considered to be 1.0 mg/kg. This study followed ‘approach 1’ given in the ICH M3 (R2) guideline to assess whether a single 50 μg (up to 100 μg) dose of the test article can be given to humans. The study design permitted a safety margin of 1000× the equivalent human dose to be established.

[^18F]fluoroethyltriazole-βAG-TOCA [Compound 7]
Effective Dose predicted for humans from rat dosimetry (Wistar rats): 0.03 mSv/MBq

[^19F]FET-βAG-TOCA
Effects on food consumption or body weight (rat (HsdHan:WIST strain)): no effects
Tolerability / mortality (rat (HsdHan:WIST strain)): no mortality

propanyl-βAG-TOCA
Effects on food consumption or body weight (rat (HsdHan:WIST strain)): no effects
Tolerability / mortality (rat (HsdHan:WIST strain)): no mortality
